Experimental data taken from patent publication US20260062412A1, “NITROGEN-CONTAINING HETEROCYCLIC COMPOUND HAVING MYT1 INHIBITORY ACTIVITY” (CHUGAI SEIYAKU KABUSHIKI KAISHA, priority 2023, published 2026).

molecular target: MYT1 protein (Homo sapiens (Human), UniProt Q99640); assay: Test for binding to ATP binding site of MYT1 (Kinase Tracer 178 / Eu-Anti-GST antibody TR-FRET); settings: ATP binding site of MYT1, 30 minutes at room temperature
Sequence (Q99640 whole entry): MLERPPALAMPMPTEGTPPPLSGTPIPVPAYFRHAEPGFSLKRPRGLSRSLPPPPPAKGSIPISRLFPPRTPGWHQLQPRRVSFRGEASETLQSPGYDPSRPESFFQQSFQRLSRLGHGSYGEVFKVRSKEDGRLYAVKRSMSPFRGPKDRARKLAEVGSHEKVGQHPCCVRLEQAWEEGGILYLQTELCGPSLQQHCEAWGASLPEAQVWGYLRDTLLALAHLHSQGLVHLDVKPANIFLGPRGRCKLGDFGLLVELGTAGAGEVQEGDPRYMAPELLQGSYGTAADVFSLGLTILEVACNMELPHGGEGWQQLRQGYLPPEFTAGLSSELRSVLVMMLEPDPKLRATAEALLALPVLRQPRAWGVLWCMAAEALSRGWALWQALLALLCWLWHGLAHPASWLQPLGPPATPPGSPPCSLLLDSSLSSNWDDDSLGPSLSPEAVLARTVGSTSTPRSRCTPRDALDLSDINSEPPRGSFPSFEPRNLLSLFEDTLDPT

Row | Structure (SMILES) | IC50 [nM]
1 | CS(=O)(=O)Nc1cc2c(-c3ccc(F)c4[nH]ncc34)c(N)c(=O)[nH]c2c2ncccc12 [Compound D16, N-[8-Amino-7-(7-fluoro-1H-indazol-4-yl)-9-oxo-10H-1,10-phenanthroline-5-yl]methanesulfonamide] | 2.7
2 | Nc1c(-c2ccc(F)c3[nH]ncc23)c2cc(NS(=O)(=O)C3CC3)c3cccnc3c2[nH]c1=O [Compound D17, N-[8-amino-7-(7-fluoro-1H-indazol-4-yl)-9-oxo-10H-1,10-phenanthrolin-5-yl]cyclopropanesulfonamide] | 3.1
3 | COc1cc2c(-c3ccc(F)c4[nH]ncc34)c(N)c(=O)[nH]c2c2ncccc12 [Compound D18, 3-Amino-4-(7-fluoro-1H-indazol-4-yl)-6-methoxy-1H-1,10-phenanthrolin-2-one] | 0.25
4 | CC(=O)Nc1cc2c(-c3ccc(F)c4[nH]ncc34)c(N)c(=O)[nH]c2c2ncccc12 [Compound D19, N-[8-amino-7-(7-fluoro-1H-indazol-4-yl)-9-oxo-10H-1,10-phenanthrolin-5-yl]acetamide] | 22
5 | CC(C)Nc1cc2c(-c3ccc(F)c4[nH]ncc34)c(N)c(=O)[nH]c2c2ncccc12 [Compound D20, 3-Amino-4-(7-fluoro-1H-indazol-4-yl)-6-(propan-2-ylamino)-1H-1,10-phenanthrolin-2-one] | 7
6 | Nc1c(-c2ccc(F)c3[nH]ncc23)c2cc(C3CCNCC3)c3cccnc3c2[nH]c1=O [Compound D21, 3-Amino-4-(7-fluoro-1H-indazol-4-yl)-6-piperidin-4-yl-1H-1,10-phenanthrolin-2-one] | 3.8
7 | CN1CCC(c2cc3c(-c4ccc(F)c5[nH]ncc45)c(N)c(=O)[nH]c3c3ncccc23)CC1 [Compound D22, 3-Amino-4-(7-fluoro-1H-indazol-4-yl)-6-(1-methylpiperidin-4-yl)-1H-1,10-phenanthrolin-2-one] | 2.9
8 | CC(C)N1CCC(c2cc3c(-c4ccc(F)c5[nH]ncc45)c(N)c(=O)[nH]c3c3ncccc23)CC1 [Compound D23, 3-Amino-4-(7-fluoro-1H-indazol-4-yl)-6-(1-propan-2-ylpiperidin-4-yl)-1H-1,10-phenanthrolin-2-one] | 6.4
9 | Nc1c(-c2ccc(F)c3[nH]ncc23)c2cc(C3CCN(C4CCC4)CC3)c3cccnc3c2[nH]c1=O [Compound D24, 3-Amino-6-(1-cyclobutylpiperidin-4-yl)-4-(7-fluoro-1H-indazol-4-yl)-1H-1,10-phenanthrolin-2-one] | 6.9
10 | Nc1c(-c2ccc(F)c3[nH]ncc23)c2cc(C3CCN(C4CCOCC4)CC3)c3cccnc3c2[nH]c1=O [Compound D25, 3-Amino-4-(7-fluoro-1H-indazol-4-yl)-6-[1-(oxan-4-yl)piperidin-4-yl]-1H-1,10-phenanthrolin-2-one] | 7.8
11 | CCN1CCC(c2cc3c(-c4ccc(F)c5[nH]ncc45)c(N)c(=O)[nH]c3c3ncccc23)CC1 [Compound D26, 3-Amino-6-(1-ethylpiperidin-4-yl)-4-(7-fluoro-1H-indazol-4-yl)-1H-1,10-phenanthrolin-2-one] | 3.3
12 | Nc1c(-c2ccc(F)c3[nH]ncc23)c2cc(C3CCN(C4COC4)CC3)c3cccnc3c2[nH]c1=O [Compound D27, 3-Amino-4-(7-fluoro-1H-indazol-4-yl)-6-[1-(oxetan-3-yl)piperidin-4-yl]-1H-1,10-phenanthrolin-2-one] | 0.53
13 | Nc1c(-c2ccc(F)c3[nH]ncc23)c2cc(C3CNC3)c3cccnc3c2[nH]c1=O [Compound D28, 3-Amino-6-(azetidin-3-yl)-4-(7-fluoro-1H-indazol-4-yl)-1H-1,10-phenanthrolin-2-one] | 1.7
14 | CC(C)N1CC(c2cc3c(-c4ccc(F)c5[nH]ncc45)c(N)c(=O)[nH]c3c3ncccc23)C1 [Compound D29, 3-Amino-4-(7-fluoro-1H-indazol-4-yl)-6-(1-propan-2-ylazetidin-3-yl)-1H-1,10-phenanthrolin-2-one] | 5.7
15 | CN1CC(c2cc3c(-c4ccc(F)c5[nH]ncc45)c(N)c(=O)[nH]c3c3ncccc23)C1 [Compound D30, 3-Amino-4-(7-fluoro-1H-indazol-4-yl)-6-(1-methylazetidin-3-yl)-1H-1,10-phenanthrolin-2-one] | 2.9
16 | Nc1c(-c2cccc3[nH]ncc23)c2ccccc2oc1=O [Compound E1, 3-Amino-4-(1H-indazol-4-yl) chromen-2-one] | 1100
17 | O=c1[nH]c2ccccc2c(-c2cccc3[nH]ncc23)c1O [Compound E2, 3-Hydroxy-4-(1H-indazol-4-yl)-1H-quinolin-2-one] | 840

Next, values leading:

Row | IC50 [nM] | Structure (SMILES)
18 | 12 | Nc1c(-c2ccc(F)c3[nH]ncc23)c2cc(Br)c3ncc(F)cc3c2[nH]c1=O [Compound F1, 3-Amino-6-bromo-9-fluoro-4-(7-fluoro-1H-indazol-4-yl)-1H-1,7-phenanthrolin-2-one]
19 | 4 | Cc1cc2c(-c3ccc(F)c4[nH]ncc34)c(N)c(=O)[nH]c2c2cc(F)cnc12 [Compound F3, 3-Amino-9-fluoro-4-(7-fluoro-1H-indazol-4-yl)-6-methyl-1H-1,7-phenanthrolin-2-one]
20 | 22 | Nc1c(-c2cc(F)c(F)c3[nH]ncc23)c2cc(Br)c3ncc(F)cc3c2[nH]c1=O [Compound F4, 3-Amino-6-bromo-4-(6,7-difluoro-1H-indazol-4-yl)-9-fluoro-1H-1,7-phenanthrolin-2-one]
21 | 3.3 | COc1cc2c(-c3cc(F)c(F)c4[nH]ncc34)c(N)c(=O)[nH]c2c2cc(F)cnc12 [Compound F5, 3-Amino-4-(6,7-difluoro-1H-indazol-4-yl)-9-fluoro-6-methoxy-1H-1,7-phenanthrolin-2-one]
22 | 9.3 | Cc1cc2c(-c3cc(F)c(F)c4[nH]ncc34)c(N)c(=O)[nH]c2c2cc(F)cnc12 [Compound F6, 3-Amino-4-(6,7-difluoro-1H-indazol-4-yl)-9-fluoro-6-methyl-1H-1,7-phenanthrolin-2-one]
23 | 16 | Nc1c(-c2ccc(F)c3[nH]ncc23)c2cc(Br)c3nccnc3c2[nH]c1=O [Compound G1, 8-Amino-5-bromo-7-(7-fluoro-1H-indazol-4-yl)-10H-pyrido[2,3-f]quinoxalin-9-one]
24 | 270 | O=c1[nH]c2c(cc(Br)c3nccnc32)c(-c2ccc(F)c3[nH]ncc23)c1Cl [Compound G2, 5-Bromo-8-chloro-7-(7-fluoro-1H-indazol-4-yl)-10H-pyrido[2,3-f]quinoxalin-9-one]
25 | 7.9 | Cc1cc2c(-c3ccc(F)c4[nH]ncc34)c(N)c(=O)[nH]c2c2nccnc12 [Compound G3, 8-Amino-7-(7-fluoro-1H-indazol-4-yl)-5-methyl-10H-pyrido[2,3-f]quinoxalin-9-one]
26 | 3.2 | Nc1c(-c2ccc(F)c3[nH]ncc23)c2cc(C3CC3)c3nccnc3c2[nH]c1=O [Compound G4, 8-Amino-5-cyclopropyl-7-(7-fluoro-1H-indazol-4-yl)-10H-pyrido[2,3-f]quinoxalin-9-one]
27 | 9.3 | CS(=O)(=O)Nc1cc2c(-c3ccc(F)c4[nH]ncc34)c(N)c(=O)[nH]c2c2nccnc12 [Compound G5, N-[8-amino-7-(7-fluoro-1H-indazol-4-yl)-9-oxo-10H-pyrido[2,3-f]quinoxalin-5-yl]methanesulfonamide]
28 | 7.4 | Nc1c(-c2ccc(F)c3[nH]ncc23)c2cc(NS(=O)(=O)C3CC3)c3nccnc3c2[nH]c1=O [Compound G6, N-[8-amino-7-(7-fluoro-1H-indazol-4-yl)-9-oxo-10H-pyrido[2,3-f]quinoxalin-5-yl]cyclopropanesulfonamide]
